In patent US8389030B2, “Nematicides from Juglandaceae and methods of use thereof” (Redox Chemicals, Inc., priority 2004, dated 2013):

Columns and labels:
[1] = test system: nematodes in roots; assay: Orange grove field trial: reduction of nematodes in plant roots vs plants in untreated soil; type: in vivo; details: clay loam soil, compared to roots of plants in untreated soil, NatureCur applied 3 times 30 days apart at 5000 ppm, the other agents applied once in mid-May
Experimental: (§1) A field trial was conducted on an orange grove, comparing the effect of the composition described in Example 1 (under its trade name, NatureCur™) against two widely used, commercially available nematicides, an emusifiable concentrate of 1,3 dichloropropene which can be applied to the soil after plants are planted (called a “post-plant” application) (Dow AgroSciences LLC, Indianapolis, Ind.), shown on the accompanying charts as “Cordon,” and imidacloprid, an insecticide marketed under the name Admire® (Bayer CropScience LP, Research Triangle Park, N.C.). For the soil treated with Cordon and the soil treated with Admire®, single applications of the agents were made in mid-May. The product NatureCur™ was applied in once in mid-May, once 30 days later in mid-June, and once again 30 days later in mid July, each time at a concentration of 5000 ppm. The soil in the grove was a clay loam, a very dense, heavy soil in which it is difficult to get agents to travel. Thus, the soil in this grove provided a particularly difficult test condition for NatureCur™, which has to infiltrate through the soil in water.
The percentage of reduction in number of nematodes in roots of plants whose soil was treated with the three agents compared to roots of plants in untreated soil is shown in Table 2 and FIG. 2.

[2] = test system: nematodes in soil; assay: Orange grove field trial: reduction of nematodes in soil vs untreated soil; type: in vivo; details: clay loam soil, compared to untreated soil, NatureCur applied 3 times 30 days apart at 5000 ppm, the other agents applied once in mid-May
Experimental: as §1
Samples were taken of the soil around the plants and of the roots. The percentage of reduction in number of nematodes in soil treated with the three agents compared to untreated soil is shown in Table 1 and FIG. 1.

SMILES | Percent reduction in nematodes in roots [1] [%] | Percent reduction in nematodes in soil [2] [%]
ClC=CCCl [1,3 dichloropropene] | 61 | 58
O=[N+]([O-])NC1=NCCN1Cc1ccc(Cl)nc1 [Imidacloprid, imidacloprid] | 46 | 32
